Experimental data taken from US10357576B2, “18F-labelled folate/antifolate analogues” (MERCK & CIE, priority 2012, dated 2019).

Columns and labels:
Human plasma stability = assay type: in vitro ADME; details: 37° C., 4 h, radio-UPLC
Method: (§1) Radio-UPLC: For stability studies, an ultra-performance liquid chromatography (UPLC™, Waters) system, equipped with an Acquity UPLC BEH C18 column (1.7 μm, 2.1×50 mm, Waters) and a coincidence detector (FlowStar LB513, Berthold) was used with following solvent system: eluent A was a NaH2PO4/Na2HPO4 buffer (0.05 M, pH 7.4) and eluent B was acetonitrile. A gradient from 0-4.0 min 100%-40% A, at a flow rate of 0.6 ml/min was used.
The radiotracer was tested with regard to its stability in human blood plasma over a period of 4 hours at 37° C. The formulated product (200 μL) was diluted with sodium phosphate buffer (100 μl) and an aliquot (60 μl, 15 MBq) was added to human plasma (500 μL), pre-incubated at 37° C. The mixture was shaken on a Thermomixer compact (Eppendorf) at 37° C. and 500 rpm. After several time points (0, 30, 60, 120, 150 and 240 min) aliquots were taken after tracer addition. Each aliquot (70 μl) was added to ice-cold MeOH (150 μl) to precipitate the proteins. To separate the supernatant from the precipitate, the suspension was centrifuged for 10 min at 13400 rpm (Eppendorf MiniSpin) at room temperature. The supernatant was passed through a microfilter (Sartorius Stedim Biotech GmbH, Minisart RC 25, 0.45 μm) and was analyzed on the radio-UPLC system.

[1] = Log D7.4 determination, shake-flask method (n-octanol/PBS); assay type: physicochemical; details: n-octanol/PBS pH 7.4, room temperature, n=10
Method: Determination of the Log D: Determination of the log D value was performed, using the shake-flask-method, where the partition coefficient of the radiotracer between n-octanol and phosphate buffered saline (PBS) was determined (Wilson et al. 2001 Applied Radiation and Isotopes). n-Octanol (0.5 ml) and PBS (0.5 ml) were mixed in an Eppendorf tube containing the radioactive sample (5-10 μl). Tubes were shaken for 15 min at room temperature in an over-head shaker and afterwards centrifuged (3 min, 5000 rpm). From each Eppendorf tube, 50 μl of each phase were transferred into a vial for counting in a γ-counter. The log D value was calculated according to the following equation: log D7.4=log [activity(octanol phase)/activity PBS phase)].
For log D7.4 determination a phosphate buffer was prepared, making a solution of KH2PO4 (1.743 g, 12.81 mmol) and Na2HPO4.2H2O (9.596 g, 53.91 mmol) in water (1000 ml). A saturated solution of phosphate buffer in n-octanol and a saturated solution of n-octanol in phosphate buffer were prepared. The PBS solution (500 μl) and n-octanol solution (500 μl) were pipetted into an Eppendorf tube and the radiotracer (5-10 μl) was added. The Eppendorf tube was shaken for 15 min at room temperature in an over-head shaker. […] By calculating the logarithm of the ratio of the counts in the n-octanol and the PBS phase, the log D7.4 value was determined. […]

[2] = Stability experiments using glutathione / S9-fraction; assay type: in vitro ADME, human; details: 37° C., 1 h, radio-UPLC
Method: as §1
Glutathione (0.1 M, 100 μl), S9-fraction (20 mg/ml, 50 μl) and KH2PO4/K2HPO4 buffer (pH 7.4, 0.5 M, 200 μl) were diluted with water (612 μl) to a volume of […] and [^18F]-3′-aza-2′-fluorofolic acid (38 μl, approx. 15 MBq) was added. The mixture was incubated at 37° C. At several time points aliquots (100 μl) were drawn and the reaction was stopped by pouring the sample into ice-cold methanol (200 μl). Each sample was diluted with NaH2PO4/Na2HPO4 buffer (pH 7.4, 0.05 M, 600 μl). Every time point was performed as duplicates and analyzed on a radio-UPLC system.

KB tumor xenografts = assay: PET imaging studies in KB tumor-bearing mice; assay type: in vivo
Method: PET experiments were performed with an eXplore VISTA PET/CT tomograph (GE). Tumor bearing mice were injected with 10-18 MBq of 3′-aza-2′-[^18F]fluorofolic acid (100-150 μl per injection) via lateral tail vein. […] Animals were anesthetized with isoflurane in an air/oxygen mixture. The PET scans were acquired from 120-150 min p.i. After acquisition, PET data were reconstructed in user-defined time frames. The fused datasets of PET and CT were analyzed with PMOD (version 3.2) software.
Dynamic PET scans of mice 1.5-90 min p.i. of 3′-aza-2′-[^18F]fluorofolic acid and at 60-150 min p.i. were performed. Static PET scans of [^18F]-2′3′-aza-folic acid were typically performed with a scan time from 120-150 min p.i. […] The uptake in other non-target organs was negligible, the only exceptions being the liver, kidneys and salivary glands.

[3] = PET, pemetrexed 400 μg 60 min prior to the radiotracer

Nc1nc2ncc(CNc3ccc(C(=O)N[C@@H](CCC(=O)O)C(=O)O)c([18F])n3)nc2c(=O)[nH]1 [3′-aza-2′-[^18F]fluorofolic acid]
Stability in human blood plasma (Human plasma stability): completely stable
log D7.4 (partition coefficient in n-octanol/PBS) [1]: −4.2±0.1
logD ([1]; read-out: log D7.4 (partition coefficient in n-octanol/PBS)): -4.2 ± 0.1
Stability with glutathione and S9-fraction [2]: completely stable
Uptake in the tumor tissue and in the kidneys with coinjected folic acid (KB tumor xenografts; PET 120-150 min p.i., excess folic acid 100 μg): reduced uptake
Accumulation in the liver after preinjection of pemetrexed (KB tumor xenografts; [3]): very strong reduction
Kidney uptake after preinjection of pemetrexed (KB tumor xenografts; [3]): reduced kidney uptake
Tumor uptake after preinjection of pemetrexed (KB tumor xenografts; [3]): high tumor uptake
Specific uptake in KB tumor xenografts (KB tumor xenografts; quoted with static baseline PET scan 120-150 min p.i.): 12.6±1.8 % ID/g
Uptake in other non-target organs (except liver, kidneys and salivary glands) (KB tumor xenografts; static baseline PET scan 120-150 min p.i.): negligible
